Measured values: patent publication US20070009617A1, “Method for preventing fungal growth in plants” (priority 2003, published 2007)

Columns and labels:
Assay in all cases: mycelial growth from inoculum plugs in amended basal nutrient solution
Rhizoctonia solani = type: cell-based; settings: fungicide control
Method: (§1) The efficacy of the garlic extract was tested against nine (9) soil-borne fungi that cause root and lower stem rots of plants. The fungal pathogens included: Pythium aphanidermatum, Pythium irregular, Pythium ultimum, Phytophthora capsici, Phytophthora cinnamomi, Phytophthora nicotiana, Rhizoctonia solani, Fusarium oxysporum fsp. lycopersici, Fusarium oxysporum f.sp. spinaciae, and Thielaviopsis basicola. All isolates used in this investigation were known to be pathogenic to various cultivated plant species.
(§2) All isolates of Pythium aphanidermatum, Pythium irregular, Pythum ultimum, Phytophthora capsici, Phytophthora cinnamomi, Phytophthora nicotiana, Rhizoctonia solani, Fusarium oxysporum f.sp. lycopersici, Fusarium oxysporum f.sp. spinaciae were grown on standard corn meal agar (CMA) for 8 to 9 days. Plugs from inoculum plates were taken using a #4 cork borer (5 mm diameter). Inoculum plugs were placed into 5-cm sterile plastic petri dishes containing 10 ml of a basal nutrient solution that consisted of 60% (v/v) clarified V-8 juice and sterile distilled water (SDW). Basal nutrient solutions were amended with the appropriate treatments. […] Cultures were placed into a growth chamber and maintained in the dark at 22(C(1(C. After 48 hours, mycelial growth (if any was visible) from culture plugs was measured.

[1] = tested on: Pythium aphanidermatum, Pythium irregular, Pythium ultimum; type: cell-based, Pythium species; settings: basal nutrient solution amended with fungicide control; 48 hours
Method: as §1, §2

[2] = tested on: Phytophthora capsici, Phytophthora cinnamomi, Phytophthora nicotiana; type: cell-based, Phytophthora species; settings: basal nutrient solution amended with fungicide control; 48 hours
Method: as §1, §2

Compound | growth on amended basal nutrient solution (Rhizoctonia solani; first replication (inappropriate concentration)) | growth on amended basal nutrient solution (Rhizoctonia solani; second replication) | growth from the inoculum plugs [1] | growth from the inoculum plugs [2]
O=[N+]([O-])c1c(Cl)c(Cl)c(Cl)c(Cl)c1Cl [PCNB] | limited amount of growth | did not grow | – | –
COCC(=O)N(c1c(C)cccc1C)C(C)C(=O)OC (stereo not shown) [metalaxyl] | – | – | none | none
